According to patent publication US20210315970A1, “Hepatitis A Virus Replication Inhibitor Targeting mTOR” (Tokyo Metropolitan Institute of Medical Science, priority 2020, published 2021):

Key:
subgenomic HAV RNA = test: Subgenomic HAV RNA replicon replication in transfected Huh-7.5 cells; type: cell-based, hepatitis A virus
Protocol: FIG. 4i Inhibition of subgenomic HAV/NLuc RNA replication in the transfected Huh-7.5 cells by three different mTOR inhibitors and DAA (30 μM 2′CMA). **P<0.01 vs. DMSO control group (one-way analysis of variance with Dunnett's multiple comparison test).
In vitro transcription of HAV or HCV RNA was performed with T7 RiboMAX Express Large Scale RNA production system (Promega) according to the manufacturer's protocol. Transfection of viral RNA was carried out in Gene Pulser Xcell Total System (Bio-Rad Laboratories) as previously described^33, or with TransIT-mRNAtransfection kit (Mirus) for HAV-Luc RNA as previously described^32.
(§1) GLuc analysis of HCV replication and dual luciferase assay for analyzing the transcriptional induction were carried out according to the previously described methods^31,32. NanoLuc activity was determined with Nano-Glo Luciferase Assay System (Promega) according to the manufacture's protocol. For virus replication assays, the medium was replaced with a drug-containing medium at 1 hour post inoculation.

[1] = tested on: HAV expressing NanoLuc reporter (18f strain, HAV/NLuc); test: HAV/NLuc reporter virus replication in HuH-7 cells (NanoLuc activity); type: cell-based, hepatitis A virus; settings: for virus replication compared to rapalogs that target mTOR alone: HAV, dual mTOR/PI3K inhibitors; for virus replication level reduced to (NanoLuc activity): highest dose (10 μM); for viral replication level reduced to (NanoLuc activity): HuH-7 cells infected with HAV/NLuc, drug given 1 hour after infection, 48 hours post-infection
Protocol: (§2) HuH-7 cells were infected with HAV/NLuc and drugs were given 1 hour after infection. 48 hours later, NanoLuc activities were measured to evaluate the virus replication levels. In addition, WST-8 reagent (Cell Counting Kit-8, Dojindo) was used to evaluate cell viability after the drug treatment.
pHM175/18f-NLuc plasmid was prepared by PCR amplification of the NLuc open reading frame using pNL1.1 plasmid (Promega) as a template and primers containing a triglycine sequence flanked by XbaI and BamHI restriction enzyme sites. This PCR product was digested with these enzymes and ligated into similarly digested pSK-2A-Zeo-2B plasmid^36 to give pSK-2A-NLuc-2B plasmid. This plasmid was further digested with SacI/PflMI to cleave out the entire 2A-NLuc-2B fragment, which was ligated into similarly digested HM175/18f parental plasmid^37 to give pHM175/18f-NLuc reporter virus.
as §1

HAV [2] = test: HAV-infected mouse model, viral RNA shed in feces (real-time PCR); type: in vivo; settings: Ifnar1-/- C57BL/6 mice, 15 mg/kg orally from Day 5 after infection, daily for 14 days except Day 9 and Day 16
Protocol: Type-I interferon receptor (Ifnar1)-knockout C57BL/6 mice were infected by tail vein injection of the virus equivalent to 1.7×10^9 genome copy number. Pictilisib (15 mg/kg) was administered 5 days after infection and viral RNA contained in the later shed feces was quantified by real-time PCR to analyze the antiviral action of the drug (Reference 3).
The drug was orally administered from Day 5 following the infection and continuously administered daily for 14-consecutive days except Day 9 and Day 16. The viral RNA levels shed in the feces reflect the viral load in the liver and thus the viral RNA levels in the feces were quantified. As a result, the viral RNA level was reduced to about one-tenth by administration of the drug, confirming its antiviral effect (FIG. 6).
Virus: HAV-HM175 strain, 1.7×10^9 GE, iv route
Vehicle: 0.5% methyl cellulose/0.2% Tween 80
Mice: Ifnar1^−/− C57BL/6, 5 animals/group
The drug was orally administered from Day 5 following the infection for 14 consecutive days except Day 9 and Day 16. Viral level in the feces was quantified with time because it can serve as an indicator that reflects the viral level in the liver.

[3] = phase II trial; cited from earlier work
HuH-7 cells = test: Cell viability after drug treatment (WST-8, Cell Counting Kit-8); type: cell-based, human; settings: at concentrations that suppress virus replication
Protocol: as §2
MicroRNA-122 mimics were synthesized by Dharmacon and transfected as miRNA/miRNA* duplex by electroporation as previously described^33. Puromycin, Blasticidin and Ruxolitinib were purchased from InvivoGen. Pyridone 6 was obtained from EMD Millipore. Recombinant human IFN-λ1 and IFN-α and actinomycin D were purchased from Sigma-Aldrich. Recombinant human IFN-γ was obtained from PeproTech. PSI-7977 (sofosbuvir) was obtained from ChemScene and 2′-C-methyl adenosine (2′ CMA) was obtained from Santa Cruz Biotechnology. Cell viabilities were determined using Cell Counting Kit-8 (Dojindo) on 96-well plates according to the manufacturer's protocol.

HAV [4] = test: HAV replication in Huh-7.5 cells; type: cell-based, hepatitis A virus; settings: IRF1-dependent
Protocol: (§3) High-titer HAV (HM175/18f strain) was mycoplasma-free and was prepared as previously described^34. HAV infection was performed at a multiplicity of infection (MOI) of 10. SeV (Cantell strain) was obtained from Charles River Laboratories, and was inoculated at 50 U ml^−1 unless otherwise indicated. Infection with HCV-carrying Gaussia luciferase (GLuc) reporter was performed as previously described^32. DENV serotype 2 (olSa-054 strain) and ZIKV (MR-766 and AB-59 strains) were propagated in Vero, C6/36 or Huh-7.5 cells and inoculated at MOI=1 as previously described^35.
Total RNA extraction was performed using RNeasy Mini Kit (QIAGEN), QIAamp viral RNA Mini Kit (QIAGEN) or TRIzol (Thermo Fisher). HAV genomic RNA was detected by a two-step RT-qPCR analysis using SuperScript III First-Strand Synthesis System (Thermo Fisher Scientific) and iTaq Universal SYBR Green Supermix (Bio-Rad Laboratories), or Thunderbird SYBR qPCR Mix (TOYOBO). 5′-GGTAGGCTACGGGTGAAAC-3′ (SEQ ID NO:3) and 5′-[…]-3′ (SEQ ID NO:4) were used as HAV-specific primers

DENV = DENV replication in Huh-7.5 cells; type: cell-based, dengue virus; settings: RARRES3 overexpression
Protocol: as §3
Plasmids encoding capsid and subgenomic RNA containing NS1-5 regions fused with a NanoLuc reporter flanked by 5′ and 3′ untranslated RNAs derived from DENV1 (D1/Hu/Saitama/NIID100/2014 strain) and DENV2-derived premembrane and envelope protein (olSa-054 strain) were transfected into HEK293T cells. Infectious virons secreted in the supernatant were harvested according to the previously described method^38.
Primer pair targeting DENV genomic RNA, 5′-[…]-3′ (SEQ ID NO:57) and 5′-CATCATTAAGTCGAGGGCC-3′ (SEQ ID NO:58), or primer pair targeting ZIKV genomic RNA, 5′-[…]-3′ (SEQ ID NO:59) and 5′[…]-3′ (SEQ ID NO:60) was used with RNA-direct SYBR Green Realtime PCR Master Mix (TOYOBO) to quantify DENV and ZIKV RNA abundance.

HCV = HCV replication in Huh-7.5 cells; type: cell-based, hepatitis C virus; settings: RARRES3 overexpression
Protocol: as §3, §1

HAV [5] = test: HAV replication in cells overexpressing RARRES3 or C113S mutant (lentiviral vectors); type: cell-based, hepatitis A virus; settings: cells overexpressing the protein
[6] = tested on: human rhinovirus 14 (HRV-14); test: HRV-14 replication with RARRES3 overexpression; type: cell-based

**Q.** With `C[C@@]1(O)[C@H](O)[C@@H](CO)O[C@H]1n1cnc2c(N)ncnc21` [2′CMA, 2′-C-methyl adenosine] as the molecule, how does the “subgenomic HAV/NLuc RNA replication” value (subgenomic HAV RNA; transfected Huh-7.5 cells, 2′CMA 30 μM) read?
**A.** Inhibition

**Q.** Which “virus replication compared to rapalogs that target mTOR alone” value [1] does the source give for `Oc1cccc(-c2nc(N3CCOCC3)c3oc4ncccc4c3n2)c1` [PI-103] here?
**A.** one-tenth

**Q.** And the “virus replication level reduced to (NanoLuc activity)” value ([1]; HAV/NLuc-infected cells)?
**A.** about one-thousandth

**Q.** For `CS(=O)(=O)N1CCN(Cc2cc3nc(-c4cccc5[nH]ncc45)nc(N4CCOCC4)c3s2)CC1` [Pictilisib], which “viral RNA level in the feces reduced to” value (HAV [2]) is on record?
**A.** about one-tenth

**Q.** What about the “virus replication compared to rapalogs that target mTOR alone” value [1] of the same molecule?
**A.** one-tenth

**Q.** And the “virus replication level reduced to (NanoLuc activity)” value ([1]; HAV/NLuc-infected cells)?
**A.** about one-thousandth

**Q.** And the safety to human [3]?
**A.** confirmed to be safe to human

**Q.** What does the source list for `CCC(=O)N1CCN(c2ccc(-n3c(=O)ccc4cnc5ccc(-c6cnc7ccccc7c6)cc5c43)cc2C(F)(F)F)CC1` [Torin-1, 1-[4-[4-(1-oxopropyl)-1-piperazinyl]-3-(trifluoromethyl)phenyl]-9-(3-quinolinyl)-benzo[h]-1,6-naphthyridin-2(1H)-one]?
**A.** cell viability (HuH-7 cells): without having an influence on the cell viability; HAV replication (effect in words) ([1]; HAV/NLuc-infected cells): suppressed strongly; viral replication level reduced to (NanoLuc activity) [1]: one-hundredth

**Q.** Which cell viability (HuH-7 cells) does the source give for `CO[C@H]1C[C@@H]2CC[C@@H](C)[C@@](O)(O2)C(=O)C(=O)N2CCCC[C@H]2C(=O)O[C@H]([C@H](C)C[C@@H]2CC[C@@H](OCCO)[C@H](OC)C2)CC(=O)[C@H](C)/C=C(\C)[C@@H](O)[C@@H](OC)C(=O)[C@H](C)C[C@H](C)/C=C/C=C/C=C/1C` [everolimus] here?
**A.** without having an influence on the cell viability

**Q.** And the “viral replication level reduced to (NanoLuc activity)” value [1]?
**A.** one-twentieth

**Q.** For `CO[C@H]1C[C@@H]2CC[C@@H](C)[C@@](O)(O2)C(=O)C(=O)N2CCCC[C@H]2C(=O)O[C@H]([C@H](C)C[C@@H]2CC[C@@H](O)[C@H](OC)C2)CC(=O)[C@H](C)/C=C(\C)[C@@H](O)[C@@H](OC)C(=O)[C@H](C)C[C@H](C)/C=C/C=C/C=C/1C` [rapamycin], which cell viability (HuH-7 cells) is on record?
**A.** without having an influence on the cell viability

**Q.** What does the source list for `CO[C@H]1C[C@@H]2CC[C@@H](C)[C@@](O)(O2)C(=O)C(=O)N2CCCC[C@H]2C(=O)O[C@H]([C@H](C)C[C@@H]2CC[C@@H](OC(=O)C(C)(CO)CO)[C@H](OC)C2)CC(=O)[C@H](C)/C=C(\C)[C@@H](O)[C@@H](OC)C(=O)[C@H](C)C[C@H](C)/C=C/C=C/C=C/1C` [temsirolimus]?
**A.** cell viability (HuH-7 cells): without having an influence on the cell viability; viral replication level reduced to (NanoLuc activity) [1]: one-twentieth

B1: IFN-γ: Recombinant human IFN-γ obtained from PeproTech (protein, UniProt P01579 24-161, looked up)
Interferon gamma: QDPYVKEAENLKKYFNAGHSDVADNGTLFLGILKNWKEESDRKIMQSQIVSFYFKLFKNFKDDQSIQKSVETIKEDMNVKFFNSNKKKRDDFEKLTNYSVTDLNVQRKAIHELIQVMAELSPAAKTGKRKRSQMLFRG
**Q.** With B1 as the molecule, how does the HAV replication (HAV [4]) read?
**A.** restricted HAV replication

B2: RARRES3: retinoic acid receptor responder protein 3, SEQ ID NO:2, phospholipase A / acyltransferase activity (protein, listed as Homo sapiens)
chain: MASPHQEPKPGDLIEIFRLGYEHWALYIGDGYVIHLAPPSEYPGAGSSSVFSVLSNSAEVKRERLEDVVGGCCYRVNNSLDHEYQPRPVEVIISSAKEMVGQKMKYSIVSRNCEHFVTQLRYGKSRCKQVEKAKVEVGVATALGILVVAGCSFAIRRYQKKATA
**Q.** With B2 as the molecule, how does the “replication of subgenomic RNA replicon” value (subgenomic HAV RNA; Huh-7.5 cells expressing RARRES3) read?
**A.** suppressed

**Q.** What about the DENV replication (DENV) of the same molecule?
**A.** did not restrict

**Q.** And the HCV replication (HCV)?
**A.** did not restrict

**Q.** And the HAV replication (HAV [5])?
**A.** strongly suppressed

**Q.** And the HRV-14 replication [6]?
**A.** did not restrict
